By IC50 is commonly meant the concentration needed to halve the response being measured. For orientation: bioavailability means dose-corrected exposure relative to a reference, in per cent. By half-life is commonly meant the time needed for the level to fall by half in the phase considered. What is called fraction unbound is free concentration divided by total concentration. What is called inhibition is how much of the control response was suppressed. One may read the clearance as a measure of how efficiently the substance is removed, as volume per time. The AUC(0-t) is the area under the concentration-time curve up to a stated or last time point.

Data set [1] addresses C-C chemokine receptor type 2 (Homo sapiens, UniProt P41597). The data set is described as follows: Antagonist activity at CCR2 in human whole blood assessed as inhibition of CCL2-induced CD11b upregulation. It counts as functional, tissue-based.
The nature of data set [2]: Oral bioavailability in cynomolgus monkey at 1 mg/kg. It is filed as ADME, organism-based, Macaca fascicularis. The following applies: in vivo.
The nature of data set [3]: Oral bioavailability in dog at 1 mg/kg. It is filed as ADME, organism-based, Canis lupus familiaris. Conditions: in vivo.
A short description of data set [4]: Stability in human liver microsomes assessed as half life at 0.5 uM measured up to 45 mins in the presence of NADPH by LC-MS/MS analysis. It is filed as ADME, Microsome. For orientation: Liver microsomes are vesicles of endoplasmic reticulum, rich in cytochrome P450 enzymes.
The target in data set [5] is T1, C-C chemokine receptor type 4 (Homo sapiens, UniProt P51679).
T1 sequence (P51679 whole entry): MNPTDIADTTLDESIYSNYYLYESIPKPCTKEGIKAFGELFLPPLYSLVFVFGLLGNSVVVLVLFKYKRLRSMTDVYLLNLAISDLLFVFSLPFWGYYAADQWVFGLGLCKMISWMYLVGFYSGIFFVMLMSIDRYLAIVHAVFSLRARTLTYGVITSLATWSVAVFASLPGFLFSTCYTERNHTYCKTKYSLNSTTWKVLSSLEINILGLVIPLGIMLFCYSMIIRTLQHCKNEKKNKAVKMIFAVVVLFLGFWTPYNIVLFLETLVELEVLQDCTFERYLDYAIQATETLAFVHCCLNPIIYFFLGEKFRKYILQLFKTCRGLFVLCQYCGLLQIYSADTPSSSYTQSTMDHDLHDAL
The experiment in a line: Displacement of [125I]chemokine from CCR4 (unknown origin) by gamma counter method. Background: In a radioligand displacement assay an active substance lowers the binding of a labelled ligand.

Data set [6] has as its target T2, C-C chemokine receptor type 1 (Homo sapiens, UniProt P32246).
T2 sequence (P32246 whole entry): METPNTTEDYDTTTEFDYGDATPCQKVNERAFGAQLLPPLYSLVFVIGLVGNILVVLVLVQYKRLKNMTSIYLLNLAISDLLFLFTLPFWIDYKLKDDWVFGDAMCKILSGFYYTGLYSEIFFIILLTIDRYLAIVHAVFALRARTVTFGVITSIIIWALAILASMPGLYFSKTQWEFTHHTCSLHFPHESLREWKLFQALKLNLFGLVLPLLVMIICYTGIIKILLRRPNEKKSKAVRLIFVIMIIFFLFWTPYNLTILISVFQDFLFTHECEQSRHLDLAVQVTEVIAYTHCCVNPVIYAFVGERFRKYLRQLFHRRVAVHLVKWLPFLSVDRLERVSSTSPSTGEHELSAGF
The experiment in a line: Displacement of [125I]MIP-1alpha from CCR1 in human THP-1 cells incubated for 12 hrs by radioligand competition assay. It counts as cell-based.

Data set [7] is described as follows: Stability in mouse liver microsomes assessed as half life at 0.5 uM measured up to 45 mins in the presence of NADPH by LC-MS/MS analysis. It is filed as ADME, Microsome.
A short description of data set [8]: Stability in rat liver microsomes assessed as half life at 0.5 uM measured up to 45 mins in the presence of NADPH by LC-MS/MS analysis. It is filed as ADME, Microsome.
Data set [9] has as its target C-C chemokine receptor type 2 (Mus musculus, UniProt P51683). The experiment in a line: Displacement of [125I]-CCL2 from mouse CCR2.
The nature of data set [10]: Permeability of the compound at pH 5.5 by PAMPA. It is filed as ADME. Conditions: read-out: permeability. In general terms: In PAMPA a lipid-coated filter parts donor from acceptor wells.
Data set [11] can be described thus: Protein binding in human plasma assessed as unbound fraction at 1 uM by equilibrium dialysis method. It counts as ADME, cell-free.
Data set [12] has as its target T3, C-X-C chemokine receptor type 2 (Homo sapiens, UniProt P25025).
T3 sequence (P25025 whole entry): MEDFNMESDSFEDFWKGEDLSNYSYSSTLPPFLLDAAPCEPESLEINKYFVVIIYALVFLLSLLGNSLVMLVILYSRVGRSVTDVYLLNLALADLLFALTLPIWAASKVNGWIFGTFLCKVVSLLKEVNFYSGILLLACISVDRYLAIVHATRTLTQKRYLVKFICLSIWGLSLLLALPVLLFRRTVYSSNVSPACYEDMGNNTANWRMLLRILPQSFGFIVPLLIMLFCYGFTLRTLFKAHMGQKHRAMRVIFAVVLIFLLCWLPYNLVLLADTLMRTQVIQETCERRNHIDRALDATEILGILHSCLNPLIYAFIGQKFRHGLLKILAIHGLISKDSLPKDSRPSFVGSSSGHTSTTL
The data set is described as follows: Displacement of [125I]-interleukin-8 from human CXCR2 expressed in human pEAK rapid cells incubated for 90 mins by microscintillation counting analysis. It counts as cell-based.

Another data set concerns the target hERG (KCNH2) (Homo sapiens, UniProt Q12809). The data set is described as follows: Inhibition of human ERG expressed in HEK293 cells at 30 uM by patch-clamp assay relative to control. It is filed as cell-based. The following applies: HEK293 cells that express hERG.
A short description of data set [13]: Protein binding in rat plasma assessed as unbound fraction at 1 uM by equilibrium dialysis method. It is filed as ADME, cell-free.
Data set [14] is described as follows: Oral bioavailability in rat at 10 mg/kg. It is filed as ADME, organism-based. Conditions: in vivo.
The subject of another data set is Mus musculus. The experiment in a line: Antiinflammatory activity against human CCR2 knock-in thioglycollate-induced peritonitis C57BL/6 mouse model assessed as reduction in inflammatory monocyte and macrophage infiltration in peritoneum administered orally twice daily for 2 days with first dose 1 hr prior to thioglycollate challenge. The following applies: dose 10-160 mg/kg, time 2.0 day. It is filed as functional, organism-based.

A short description of data set [15]: Clearance in dog at 1 mg/kg, iv. It counts as ADME, organism-based, Canis lupus familiaris. The following applies: in vivo.
A short description of data set [16]: AUC (0 to 24 hrs) in mouse at 10 mg/kg, po. Also noted: time < 24 hr, route oral, dose 10 mg/kg. It counts as ADME, organism-based. The following applies: in vivo.
Data set [17] can be described thus: Clearance in mouse at 2 mg/kg, iv. It is filed as ADME, organism-based. The following applies: in vivo.
Data set [18] is described as follows: Protein binding in mouse plasma assessed as unbound fraction at 1 uM by equilibrium dialysis method. It counts as ADME, cell-free.
Data set [19] in a line: Oral bioavailability in mouse at 10 mg/kg. It counts as ADME, organism-based. The following applies: in vivo.
Data set [20] can be described thus: AUC (0 to 24 hrs) in rat at 10 mg/kg, po. It is filed as ADME, organism-based. More on the design: time < 24 hr, route oral, dose 10 mg/kg. Conditions: in vivo.
Data set [21] can be described thus: AUC (0 to 24 hrs) in dog at 1 mg/kg, po. Conditions: in vivo. It counts as ADME, organism-based, Canis lupus familiaris. Also noted: time < 24 hr, route oral, dose 1 mg/kg.
Data set [22] in a line: AUC (0 to 24 hrs) in cynomolgus monkey at 1 mg/kg, po. It is filed as ADME, organism-based, Macaca fascicularis. Also noted: time < 24 hr, route oral, dose 1 mg/kg. The following applies: in vivo.
Data set [23] can be described thus: Clearance in rat at 2 mg/kg, iv. It counts as ADME, organism-based. Conditions: in vivo.
The nature of data set [24]: Clearance in cynomolgus monkey at 1 mg/kg, iv. It counts as ADME, organism-based, Macaca fascicularis. Conditions: in vivo.
The species entered for a further data set is Homo sapiens. The experiment in a line: Selectivity ratio of IC50 for displacement of [125I]-CCL2 from CCR2 in human PBMC cells to IC50 for displacement of [125I]-MIP-1beta from CCR5 in human peripheral T cells. It is filed as cell-based.

Where only a bound is given, the exact number is not on record here.

hERG (KCNH2), sequence (Q12809 whole entry): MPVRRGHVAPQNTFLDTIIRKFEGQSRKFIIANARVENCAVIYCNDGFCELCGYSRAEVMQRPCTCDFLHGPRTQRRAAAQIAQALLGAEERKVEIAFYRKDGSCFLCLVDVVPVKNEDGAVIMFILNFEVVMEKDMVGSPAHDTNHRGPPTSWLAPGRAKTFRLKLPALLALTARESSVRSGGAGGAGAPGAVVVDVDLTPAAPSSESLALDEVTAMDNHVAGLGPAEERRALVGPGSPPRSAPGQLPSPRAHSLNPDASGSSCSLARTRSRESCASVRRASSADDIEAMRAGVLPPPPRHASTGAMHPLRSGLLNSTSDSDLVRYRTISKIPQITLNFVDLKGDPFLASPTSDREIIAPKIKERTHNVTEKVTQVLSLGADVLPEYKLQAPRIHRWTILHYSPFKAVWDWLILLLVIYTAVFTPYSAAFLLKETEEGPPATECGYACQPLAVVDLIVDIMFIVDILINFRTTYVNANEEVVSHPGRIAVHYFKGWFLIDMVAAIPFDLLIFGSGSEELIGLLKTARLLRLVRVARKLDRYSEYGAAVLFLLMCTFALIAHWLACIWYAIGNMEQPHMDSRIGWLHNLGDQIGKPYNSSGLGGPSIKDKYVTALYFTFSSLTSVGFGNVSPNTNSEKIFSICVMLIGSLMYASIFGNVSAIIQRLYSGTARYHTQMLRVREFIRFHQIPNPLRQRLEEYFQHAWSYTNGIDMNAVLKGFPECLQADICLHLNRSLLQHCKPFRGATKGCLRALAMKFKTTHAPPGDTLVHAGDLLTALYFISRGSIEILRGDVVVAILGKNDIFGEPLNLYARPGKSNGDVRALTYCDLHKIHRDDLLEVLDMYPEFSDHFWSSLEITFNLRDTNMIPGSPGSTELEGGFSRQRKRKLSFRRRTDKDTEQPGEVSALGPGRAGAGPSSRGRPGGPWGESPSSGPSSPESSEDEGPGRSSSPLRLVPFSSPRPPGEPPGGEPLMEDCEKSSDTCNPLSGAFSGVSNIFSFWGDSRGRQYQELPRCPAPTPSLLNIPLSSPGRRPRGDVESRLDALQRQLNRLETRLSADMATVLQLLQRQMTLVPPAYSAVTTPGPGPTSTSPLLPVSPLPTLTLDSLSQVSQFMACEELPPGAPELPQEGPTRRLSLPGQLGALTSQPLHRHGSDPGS
C-C chemokine receptor type 2 (Homo sapiens, UniProt P41597), sequence (P41597 whole entry): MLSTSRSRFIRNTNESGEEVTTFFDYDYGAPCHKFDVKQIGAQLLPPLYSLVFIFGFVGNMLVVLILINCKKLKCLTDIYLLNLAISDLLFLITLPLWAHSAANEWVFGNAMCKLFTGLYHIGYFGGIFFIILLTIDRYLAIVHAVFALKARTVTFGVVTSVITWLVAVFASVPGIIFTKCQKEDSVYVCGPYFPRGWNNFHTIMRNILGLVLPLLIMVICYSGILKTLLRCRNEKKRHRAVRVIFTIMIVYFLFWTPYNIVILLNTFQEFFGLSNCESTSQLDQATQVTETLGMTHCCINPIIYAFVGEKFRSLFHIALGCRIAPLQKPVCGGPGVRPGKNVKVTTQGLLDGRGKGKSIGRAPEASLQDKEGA
C-C chemokine receptor type 2 (Mus musculus, UniProt P51683), sequence (P51683 whole entry): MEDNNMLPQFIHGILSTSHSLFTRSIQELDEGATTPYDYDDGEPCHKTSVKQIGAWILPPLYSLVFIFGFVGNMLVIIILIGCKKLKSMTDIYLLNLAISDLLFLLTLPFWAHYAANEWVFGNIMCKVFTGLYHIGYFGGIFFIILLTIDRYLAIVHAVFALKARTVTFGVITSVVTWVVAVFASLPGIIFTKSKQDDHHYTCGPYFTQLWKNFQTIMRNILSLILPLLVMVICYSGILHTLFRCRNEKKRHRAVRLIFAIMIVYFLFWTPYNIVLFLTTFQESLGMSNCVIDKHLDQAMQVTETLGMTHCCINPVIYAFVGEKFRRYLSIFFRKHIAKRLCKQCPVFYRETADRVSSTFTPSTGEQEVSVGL

With `CC(=O)N[C@@H]1C[C@H](NC(C)(C)C)CC[C@@H]1N1CC[C@H](Nc2ncnc3ccc(C(F)(F)F)cc23)C1=O`, the IC50 in data set [1] was found to be 2.6 nM.
Take `CC(=O)N[C@@H]1C[C@H](NC(C)(C)C)CC[C@@H]1N1CC[C@H](Nc2ncnc3cc(C(C)(C)C)nn23)C1=O` [BMS-813160]: the bioavailability in [2] was 63%; in data set [3], 61%; in [14], 94%; in data set [19] it was 100%. Also, the half-life at 0.5 µM in data set [4] is 2.43 h; in data set [7] it was > 3.33 h; in data set [8], > 3.33 h. Moreover, the IC50 is > 40000 nM in data set [5], > 25000 nM in data set [6], 45 nM in data set [9] and > 40000 nM in data set [12]. In data set [10], the Papp is 1.9 ×10⁻⁶ cm/s. Moreover, the fraction unbound at 1 µM in data set [11] is 0.71; in data set [13], 0.69; in data set [18], 0.58. Moreover, 30 µM produced 9% inhibition at hERG (KCNH2). In the data set with Mus musculus, the Activity entry was “Dose-Dependent Effect”. Further, the clearance in data set [15] was 17 mL/min/kg; in [17], 85 mL/min/kg; in [23], 50 mL/min/kg; in data set [24] it was 16 mL/min/kg. The AUC(0-t) at 24 h in [16] came out at 5.41 µM·h; in [20] it was 6.5 µM·h; in data set [21], 1.23 µM·h; in [22], 1.3 µM·h. Further, the Ratio IC50 in the data set listed under Homo sapiens was found to be 2.

These data come from ChEMBL document CHEMBL4840365, “BMS-813160: A Potent CCR2 and CCR5 Dual Antagonist Selected as a Clinical Candidate” (ACS Med Chem Lett, 2021).
